Measurements taken from US20110091375A1, “USE OF THE COMBINATION COMPRISING TEMOZOLOMIDE AND TNF-ALPHA FOR TREATING GLIOBLASTOMA” (THE UNIVERSITY OF CHICAGO, priority 2004, published 2011).
Where a SMILES comes first, the peptide text is derived from it. The star is where a group is joined. Cbz = O=C(OCc1ccccc1)*; CH2F = FC*

What was measured:
Assay type in all cases: cell-based, human
U87 cells [1] = test: Measurement of superoxide production (hydroethidine oxidation); conditions: P<0.05 vs TNFα+TMZ
Procedure: U87 cells were plated at a density of 10^6 cells in flat-bottom 6-well tissue culture plates, incubated overnight and treated as indicated in the figure legend. Cells were then washed, resuspended in PBS and 1 μL of 10 mM hydroethidine (HE) per mL cell suspension (10 μM final concentration) was added and incubated for 5 m at 37° C. Cells were harvested and analyzed on a flow cytometer (FACSort; BD Biosciences) with excitation at 488 nm and emission collected using a 620-670 nm […] long-pass filter. Data was analyzed by Flowjo software.

JNK = JNK phosphorylation (activation), Western blot
Procedure: (§1) 20 μg of whole U87 cell (or nuclear) lysate was subjected to sodium dodecyl sulfate (SDS)-polyacrylamide gel electrophoresis (PAGE). Following electro-transfer, Immobilon-P membranes (Millipore Corp. Burlington, Mass., USA.) were probed with primary polyclonal antibody against IκBα, phospho-Ser32-IκBα, SAPK/JNK, phospho-Thr183/Tyr185-SAPK/JNK, p65, phospho-Ser536-p65 (Cell Signaling Technology Inc. Beverly, […]., USA) diluted 1:1000 overnight at 4° C. Anti-rabbit IgG HRP-linked secondary antibody (Cell Signaling Technology) was diluted 1:1000 in blocking buffer and applied for 1 h at room temperature. Immunoreactive bands were detected by SuperSignal enhanced chemiluminescence (ECL) (Pierce, Rockford, Ill., USA) and exposed to Kodak X-Omat film.

U87 cells [2] = test: Flow cytometric analysis of apoptosis (fractional DNA content, annexin V binding)
Procedure: Fractional DNA content: U87 cells (10^5) were plated overnight at 37° C. with 5% CO2. The cells were then treated with TNFα (10 ng/mL) and/or TMZ (100 μM). At 72 h the cells were washed in PBS and fixed in ice-cold 70% (v/v) ethanol. The cells were washed twice and incubated in RNase (1 mg/mL) for 30 m at 37° C., then incubated in propidium iodide (PI) solution (100 ug/mL) for […] at 4° C. Flow cytometric analysis was performed on a FACSort instrument (Becton Dickinson Immunocytometry Systems, San Jose, Calif.), and the data were analyzed using the CellQuest software (Becton Dickinson).
Annexin V binding (van Engeland, M. et al. (1998) Cytometry 31(1):1-9): At 72 h cells were washed in PBS and incubated in the dark for 15 m with binding buffer containing 5 μl of Annexin V-FITC and 5 μl of PI (Annexin V-FITC apoptosis detection kit II). The data was analyzed by Flowjo analysis software (Tree Star Inc., Ashland, Oreg.).
Cells were either un-transfected or co-transfected with pRC-CMV-p65 or pRC-CMV in the presence of a GFP plasmid at a ratio of 4:1. Under these conditions, cells expressing GFP also expressed the co-transfected plasmid (Tang, F. et al. (2002) Mol Cell Biol 22:8571-8579). Cells were then left untreated or treated as described in the figure legends. At 72 h cells were washed in PBS and incubated in the dark for 15 m with binding buffer containing 5 μl of Annexin V-FITC and 5 μl of Propidium iodide (PI). In transfected cells, annexin V binding was assessed in GFP positive cells. Data was analyzed by Flowjo analysis software (Tree Star Inc., Ashland, Oreg., USA) as described in U.S. Provisional Application No. 60/604,251 (Yamini, B. et al. (2004) Cancer Res 64:6381-6384).

U87 cells [3] = test: U87 cell viability (Trypan Blue dye exclusion, MTS)
Procedure: Trypan Blue dye exclusion method was employed. 10^4 U87 cells were plated and incubated at 37° C. overnight. Subsequently, the cells were contacted with media containing TNFα (10 ng/mL) and/or TMZ (100 μM), incubated for 3 h, and washed. […] All of the studies were performed in triplicate.

IκBα = test: TNFα-induced IκBα degradation and phosphorylation (Western blot / kinase assay); conditions: at 15 m, TNFα with or without TMZ pretreatment
Procedure: Cells were then washed with 10 mL ice-cold PBS, scraped from the dish, and pelleted by centrifugation at 1000 rpm for 5 m at 4° C. Cell pellets were resuspended in 400 μl of ice-cold buffer A (10 mM HEPES, pH 7.9; 10 mM KCl; 0.1 mM EDTA; 1 mM DTT; 0.5 mM phenylmethysulfonylfluoride [PMSF]; 1 μg/mL leupeptin; 5 μg/mL aprotinin) and allowed to swell on ice for 15 m. Following the addition of 25 μl of 10% NP-40, the suspension was vortexed for 10 s and centrifuged at 14,500 rpm for 1 m at 4° C. Nuclei were resuspended in 50 μl of ice-cold buffer B (20 mM HEPES, pH 7.9; […]; 1 mM EDTA; 1 mM DTT; 1 mM PMSF; 25% glycerol; 1 μg/mL leupeptin; 5 μg/mL aprotinin) and incubated on ice for 15 m. The nuclear suspension was then centrifuged at 14,500 rpm for 5 m at 4° C. and the supernatant containing the nuclear proteins was transferred to a clean tube. Protein concentrations for each sample were determined by the Bradford method (Bio-Rad, Richmond, Calif., USA) and were adjusted to 2 μg/μl by the addition of buffer B.
as §1
IκK was immunoprecipitated from treated U87 cell extracts with anti-IKKβ antibody, (Santa Cruz Biotechnology, Santa Cruz, Calif., USA). […] Kinase activity was quantified using a Phosphoimager and Equal protein loading determined by immunoblotting with anti-IκKβ antibody (Upstate USA, Charlottesville, Va., USA). […]

[4] = pretreatment before TMZ and TNFα

## CC(=O)N[C@@H](CS)C(=O)O [NAC, N-acetylcystein]
U87 cells [1]
  increase in O2^.− induced by TMZ and TNFα, NAC pretreatment: significantly inhibited
JNK; U87, NAC pretreatment
  reduction of delayed JNK activation induced by combination TMZ and TNFα: 1.7 fold
JNK; U87, TMZ and TNFα
  transient JNK activation, NAC pretreatment: without affecting
U87 cells [2]; U87
  effect on cell death, pretreatment alone: minimal effects
U87 cells [2]; annexin V binding, U87, P<0.01 vs TNFα+TMZ
  apoptosis induced by combination TMZ and TNFα, inhibitor pretreatment: significantly reversed

## COC(=O)C[C@H](NC(=O)[C@H](C)NC(=O)[C@@H](NC(=O)OCc1ccccc1)C(C)C)C(=O)CF [zVAD] (Cbz-Val-Ala-Asp(OMe)-CH2F)
U87 cells [3]; [4]
  cytotoxicity induced by combined treatment with TMZ and TNFα, inhibitor pretreatment: completely reversed
JNK; [4]
  JNK activation induced by TMZ and TNFα, inhibitor pretreatment: did not inhibit

## TNFα
U87 cells [3]; 10 ng/mL TNFα and/or 100 μM TMZ
  effect on U87 cell viability: Minimal effects
JNK; glioma cells
  JNK phosphorylation (activation): transiently increased
IκBα
  degradation of IκBα: complete degradation
U87 cells [2]; fractional DNA content, 72 h, TNFα 10 ng/mL and/or TMZ 100 μM
  U87 cell apoptosis (sub-G1 hypodiploid/apoptotic peak): minimal effect
